The values that follow come from patent publication US20130065888A1, “OPHTHALMIC FORMULATIONS AND PROCESSES FOR THEIR PREPARATION” (priority 2011, published 2013).

The nature of this series: Numerical particle size distribution by microscopical image analysis of brinzolamide suspensions made by different homogenization techniques (Example 1). The format is physicochemical. As to conditions: suspension in 0.05% Polysorbate 80, prior to treatment. The method, then: Preferably, particle size analyses and particle size distributions of the suspension are obtained by microscopy using a particle size analyser (preferably by following US Pharmacopeia 29 <776>—Optical Microscopy).
In Examples 1.1, 1.2 and 1.3, brinzolamide ophthalmic suspensions were prepared by using three different homogenization techniques (high pressure homogenization in accordance with the present invention, high shear homogenization and ball milling) in order to test the effectiveness these techniques on de-agglomeration of brinzolamide particles and coating of the particles with wetting agent. Three different wetting agents were used (Polysorbate 80, Poloxamer 407 and Tyloxapol). Particle size analyses were conducted by microscopy.
Portions of the suspension were treated separately by the following three methods (i)-(iii): • (i) high pressure homogenization (5000 psi/5 cycles using Microfluidizer® high pressure homogenizer) • (ii) high shear homogenization (8000 rpm/120 minutes (Ultra-Turrax high shear mixer) • (iii) ball milling (8.5 hours at 22-24 rpm (tumble blender; Zirconox beads: 0.7-1.2 mm)

Take `CCN[C@H]1CN(CCCOC)S(=O)(=O)c2sc(S(N)(=O)=O)cc21` [brinzolamide]: the “particle size distribution of the individual brinzolamide particles, d90” value is given as at most 3.0 μm and the “particle size of agglomerates of brinzolamide” value was “greater than 10 μm”.
